Measurements as given in ChEMBL document CHEMBL5137018, “Pyranochromones with Anti-Inflammatory Activities in Arthritis from Calophyllum membranaceum” (J Nat Prod, 2022).
The source made the active and inactive calls. No cut-off for these calls is given here.

How the values were obtained:
RAW264.7 [1] = assay: Cytotoxicity against mouse RAW264.7 cells assessed as effect on cell viability measured after 12 hrs by MTT assay; type: functional
RAW264.7 [2] = assay: Antiinflammatory activity in mouse RAW264.7 assessed as inhibition of LPS-induced NO production preincubated for 12 hrs followed by LPS stimulation and measured after 6 hrs by Griess reagent based assay; type: functional, cell-based
Mus musculus [3] = assay: Antiinflammatory activity in carrageenan-induced acute arthritis ICR mouse assessed as reduction in paw swelling at 10 to 20 mg/kg, po for 10 days followed by carrageenan stimulation and measured upto 6 hrs by vernier caliper method; type: functional, organism-based; settings: dose 10-20 mg/kg, time 10.0 day
Mus musculus [4] = assay: Antiinflammatory activity in carrageenan-induced acute arthritis ICR mouse assessed as reduction in relative neutrophil to lymphocyte ratio at 10 mg/kg, po for 10 days followed by carrageenan stimulation and measured upto 6 hrs by hematology analyzer; type: functional; settings: time 10 day
Mus musculus [5] = assay: Antiinflammatory activity in carrageenan-induced acute arthritis ICR mouse assessed as reduction in relative neutrophil to lymphocyte ratio at 20 mg/kg, po for 10 days followed by carrageenan stimulation and measured upto 6 hrs by hematology analyzer; type: functional; settings: time 10 day
Mus musculus [6] = assay: Antiinflammatory activity in carrageenan-induced acute arthritis ICR mouse assessed as downregulation of IL-2 secretion in plasma measured at 10 to 20 mg/kg, po for 10 days followed by carrageenan stimulation and measured after 6 hrs by ELISA; type: functional, organism-based; settings: dose 10-20 mg/kg, time 10.0 day, DDE = dose-dependent effect
Mus musculus [7] = assay: Antiinflammatory activity in carrageenan-induced acute arthritis ICR mouse assessed as downregulation of IL-4 secretion in plasma measured at 10 to 20 mg/kg, po for 10 days followed by carrageenan stimulation and measured after 6 hrs by ELISA; type: functional, organism-based; settings: dose 10-20 mg/kg, time 10.0 day, DDE = dose-dependent effect
Mus musculus [8] = assay: Antiinflammatory activity in carrageenan-induced acute arthritis ICR mouse assessed as downregulation of IL-5 secretion in plasma measured at 10 to 20 mg/kg, po for 10 days followed by carrageenan stimulation and measured after 6 hrs by ELISA; type: functional, organism-based; settings: dose 10-20 mg/kg, time 10.0 day, DDE = dose-dependent effect
RAW264.7 [9] = assay: Antiinflammatory activity in mouse RAW264.7 cells assessed as increase in IKK alpha phosphorylation at 0.1 to 5 uM preincubated for 12 hrs followed by LPS stimulation and measured after 24 hrs by western blot assay; type: functional, cell-based; settings: dose 0.1-5 µM, time 36.0 hrs, DDE = dose-dependent effect
RAW264.7 [10] = assay: Antiinflammatory activity in mouse RAW264.7 cells assessed as increase in IKK beta phosphorylation at 0.1 to 5 uM preincubated for 12 hrs followed by LPS stimulation and measured after 24 hrs by western blot assay; type: functional, cell-based; settings: dose 0.1-5 µM, time 36.0 hrs, DDE = dose-dependent effect
RAW264.7 [11] = assay: Antiinflammatory activity in mouse RAW264.7 cells assessed as suppression of NF-kappa B expression at 0.1 to 5 uM preincubated for 12 hrs followed by LPS stimulation and measured after 24 hrs by western blot assay; type: functional, cell-based; settings: dose 0.1-5 µM, time 36.0 hrs, DDE = dose-dependent effect
[12] = biological target: T1, Toll-like receptor 4 (Mus musculus) (UniProt Q9QUK6); assay: Binding affinity to mouse TLR4 in RAW264.7 cells assessed as thermal stabilization at 1 uM and measured after 12 hrs by CETSA analysis; type: cell-based
T1 sequence (whole entry): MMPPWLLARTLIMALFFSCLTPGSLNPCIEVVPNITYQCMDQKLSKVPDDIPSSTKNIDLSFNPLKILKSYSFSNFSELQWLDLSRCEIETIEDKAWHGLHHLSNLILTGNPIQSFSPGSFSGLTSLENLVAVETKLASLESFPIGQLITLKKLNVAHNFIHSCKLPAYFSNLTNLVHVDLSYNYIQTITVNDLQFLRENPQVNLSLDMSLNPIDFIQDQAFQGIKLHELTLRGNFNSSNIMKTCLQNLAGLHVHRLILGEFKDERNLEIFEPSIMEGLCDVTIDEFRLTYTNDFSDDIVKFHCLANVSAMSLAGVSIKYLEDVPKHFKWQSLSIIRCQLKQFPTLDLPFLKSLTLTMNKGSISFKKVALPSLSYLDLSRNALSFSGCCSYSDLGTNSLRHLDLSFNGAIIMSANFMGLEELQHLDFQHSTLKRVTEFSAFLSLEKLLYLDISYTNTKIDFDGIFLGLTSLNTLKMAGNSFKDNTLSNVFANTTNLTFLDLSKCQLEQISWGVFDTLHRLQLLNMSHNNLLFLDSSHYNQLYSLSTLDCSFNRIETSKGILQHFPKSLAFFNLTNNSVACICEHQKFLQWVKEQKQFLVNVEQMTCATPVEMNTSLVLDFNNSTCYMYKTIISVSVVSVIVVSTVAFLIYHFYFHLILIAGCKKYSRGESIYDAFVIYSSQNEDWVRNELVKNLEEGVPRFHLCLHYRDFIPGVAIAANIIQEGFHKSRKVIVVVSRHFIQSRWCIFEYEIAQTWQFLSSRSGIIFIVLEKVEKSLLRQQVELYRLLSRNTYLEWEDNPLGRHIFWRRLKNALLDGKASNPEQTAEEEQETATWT

RAW264.7 [13] = assay: Antiinflammatory activity in LPS induced mouse RAW264.7 cells assessed as downregulation of IL-2 secretion at 0.1 to 5 uM incubated for 12 hrs followed by LPS stimulation and measured after 24 hrs by ELISA; type: functional, cell-based; settings: dose 0.1-5 µM, time 36.0 hrs, DDE = dose-dependent effect
RAW264.7 [14] = assay: Antiinflammatory activity in LPS induced mouse RAW264.7 cells assessed as downregulation of IL-4 secretion at 0.1 to 5 uM incubated for 12 hrs followed by LPS stimulation and measured after 24 hrs by ELISA; type: functional, cell-based; settings: dose 0.1-5 µM, time 36.0 hrs, DDE = dose-dependent effect
RAW264.7 [15] = assay: Antiinflammatory activity in LPS induced mouse RAW264.7 cells assessed as downregulation of IL-5 secretion at 0.1 to 5 uM incubated for 12 hrs followed by LPS stimulation and measured after 24 hrs by ELISA; type: functional, cell-based; settings: dose 0.1-5 µM, time 36.0 hrs, DDE = dose-dependent effect

Structure (SMILES) | CC50 (RAW264.7 [1]) | IC50 (RAW264.7 [2]) | also measured
CCC[C@@H](CC(=O)OC)c1c(O)c2c(c3c1OC(C)(C)C=C3)O[C@@H](C)[C@H](C)C2=O | 698 µM | 2.91 µM | –
CCCC(CC(=O)OC)c1c2c(c(O)c3c1O[C@H](C)[C@@H](C)C3=O)C=CC(C)(C)O2 (stereo partly drawn) | 649 µM | 5.14 µM | –
CCCCC[C@H](CC(=O)OC)c1c(O)c2c(c3c1OC(C)(C)C=C3)O[C@H](C)[C@H](C)C2=O | 660 µM | 0.92 µM | Activity (Mus musculus [3]): Active; Ratio (Mus musculus [4]): 0.89; Ratio (Mus musculus [5]): 0.74; Activity (Mus musculus [6]): Dde; Activity (Mus musculus [7]): Dde; Activity (Mus musculus [8]): Dde; Activity (RAW264.7 [9]): Dde; Activity (RAW264.7 [10]): Dde; Activity (RAW264.7 [11]): Dde; Activity [12]: Active; Activity (RAW264.7 [13]): Dde; Activity (RAW264.7 [14]): Dde; Activity (RAW264.7 [15]): Dde
C[C@@H]1Oc2c(c(O)c3c(c2[C@@H](CC(=O)O)c2ccccc2)OC(C)(C)C=C3)C(=O)[C@H]1C | 569 µM | 13.8 µM | –
CCCC(CC(=O)O)c1c2c(c(O)c3c1O[C@H](C)[C@@H](C)C3=O)C=CC(C)(C)O2 (stereo partly drawn) | 663 µM | 8.44 µM | –
CCCC[C@H](CC(=O)OC)c1c2c(c(O)c3c1O[C@@H](C)[C@H](C)C3=O)C=CC(C)(C)O2 | 574 µM | 4.23 µM | –
COC(=O)C[C@@H](c1ccccc1)c1c2c(c(O)c3c1O[C@@H](C)[C@H](C)C3=O)C=CC(C)(C)O2 | 594 µM | 12.5 µM | –
CCCCC[C@H](CC(=O)O)c1c(O)c2c(c3c1OC(C)(C)C=C3)O[C@H](C)[C@H](C)C2=O | 636 µM | 5.17 µM | –
CCCC1CC(=O)Oc2c(C(=O)[C@H](C)[C@H](C)O)c(O)c3c(c21)OC(C)(C)C=C3 (stereo partly drawn) | 552 µM | 8.42 µM | –
CCCCCC(CC(=O)O)c1c2c(c(O)c3c1O[C@H](C)[C@@H](C)C3=O)C=CC(C)(C)O2 (stereo partly drawn) | 668 µM | 6.88 µM | –
C[C@H](O)[C@H](C)C(=O)c1c(O)c2c(c3c1OC(=O)C[C@H]3c1ccccc1)OC(C)(C)C=C2 | 517 µM | 9.34 µM | –
CCCCC(CC(=O)O)c1c2c(c(O)c3c1O[C@H](C)[C@@H](C)C3=O)C=CC(C)(C)O2 (stereo partly drawn) | 654 µM | 7.43 µM | –
C[C@H](C(=O)c1c(O)c2c(c3c1OC(=O)C[C@H]3c1ccccc1)OC(C)(C)C=C2)[C@@H](C)O | 507 µM | 10.1 µM | –
C[C@H]1Oc2c(c(O)c3c(c2[C@@H](CC(=O)O)c2ccccc2)OC(C)(C)C=C3)C(=O)[C@@H]1C | 524 µM | 12.6 µM | –
C[C@@H]1Oc2c3c(c([C@@H](CC(=O)O)c4ccccc4)c(O)c2C(=O)[C@@]1(C)O)OC(C)(C)C=C3 | 588 µM | 8.23 µM | –
CCCCCC(CC(=O)OC)c1c2c(c(O)c3c1O[C@H](C)[C@@H](C)C3=O)C=CC(C)(C)O2 (stereo partly drawn) | 687 µM | 4.05 µM | –
C[C@@H]1C(=O)c2c(O)c([C@@H](CC(=O)O)c3ccccc3)c3c(c2O[C@@H]1C)C=CC(C)(C)O3 (single isomer, unassigned) | 583 µM | 11.3 µM | –
CC/C=C\C[C@H](CC(=O)O)c1c2c(c(O)c3c1O[C@@H](C)[C@H](C)C3=O)C=CC(C)(C)O2 | 550 µM | 18.4 µM | –
CNC(=N)NCCC[C@H](N)C(=O)O [TILARGININE ACETATE] | 214 µM | 20.3 µM | –
COC(=O)C[C@@H](c1ccccc1)c1c(O)c2c(c3c1OC(C)(C)C=C3)O[C@H](C)[C@H](C)C2=O | 601 µM | 11.3 µM | –
